Data reported in PubChem BioAssay (NCI).
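Step 1: Grow cells in 96-well plates. Step 2: Expose to compound for 48 hours at 5 concentrations. Step 3: Interpolate endpoints linearly; if unreached, use highest concentration. GI50: concentration for 50% inhibition of growth. TGI: total growth inhibition.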

Key:
Assay in all cases: NCI tumour cell line growth inhibition, 48 h
COLO 205 colon = tested on: COLO 205 colon
DU-145 prostate = tested on: DU-145 prostate
HCT-116 colon = tested on: HCT-116 colon
HCT-15 colon = tested on: HCT-15 colon
HOP-62 NSCLC = tested on: HOP-62 NSCLC
HS 578T breast = tested on: HS 578T breast
MCF7 breast = tested on: MCF7 breast
OVCAR-4 ovarian = tested on: OVCAR-4 ovarian
SN12C renal = tested on: SN12C renal
TK-10 renal = tested on: TK-10 renal

Compound | GI50 (COLO 205 colon) [µM] | TGI (COLO 205 colon) [µM] | GI50 (DU-145 prostate) [µM] | TGI (DU-145 prostate) [µM] | GI50 (HCT-116 colon) [µM] | TGI (HCT-116 colon) [µM] | GI50 (HCT-15 colon) [µM] | TGI (HCT-15 colon) [µM] | GI50 (HOP-62 NSCLC) [µM] | TGI (HOP-62 NSCLC) [µM] | GI50 (HS 578T breast) [µM] | TGI (HS 578T breast) [µM] | GI50 (MCF7 breast) [µM] | TGI (MCF7 breast) [µM] | GI50 (OVCAR-4 ovarian) [µM] | TGI (OVCAR-4 ovarian) [µM] | GI50 (SN12C renal) [µM] | TGI (SN12C renal) [µM] | GI50 (TK-10 renal) [µM] | TGI (TK-10 renal) [µM]
O=C1C(=O)c2c(nc3ccc(C(F)(F)F)cn23)-c2ccccc21 | 1.63 | 3.52 | 0.185 | 0.345 | 0.176 | 0.354 | 0.202 | 0.656 | 0.169 | 0.339 | 0.206 | 0.523 | 0.168 | 0.4 | 0.137 | 0.271 | 0.186 | 0.354 | 0.738 | 1.24
Nc1cc2c3c(cccc3c1)C(=O)N(CCN1CCCC1)C2=O | 1.68 | 10.3 | 2.01 | 37.4 | 2.73 | > 35 | 2.02 | > 100 | 2.58 | 25.5 | 4.83 | 35 | 1.18 | 35.6 | 4.75 | 42.5 | 2.73 | > 84.8 | 5.49 | 33.7
CCCCNC(c1ccc(Cl)cc1)C(O)c1ccc(Cl)cc1 (stereo not given) | 1.56 | 3.25 | 3.1 | 10.4 | 0.938 | 2.27 | 2.08 | 5.7 | 2.19 | 9.71 | 4.98 | 26.9 | 1.95 | 5.03 | 2.87 | 13.5 | 2.16 | 10.6 | 2.2 | 6.99
COC1=CC(c2ccc[nH]2)=N/C1=C\c1[nH]c(C)c(C(=O)CCCCCCCCC(=O)O[C@H]2CC[C@H]3C4CCc5cc(O)ccc5C4CC[C@]23C)c1C (stereo not given in full) | 0.332 | > 50 | 0.387 | > 50 | 0.159 | > 22.1 | 1.55 | > 50 | 0.483 | 10.2 | 0.411 | > 33.9 | 0.37 | > 50 | 0.343 | > 50 | 0.6 | > 50 | 0.861 | > 50
CC1(C)CC(C)(C)c2cc(NC(=S)Nc3ccc([N+](=O)[O-])cc3)ccc2S1 | 13 | 59.4 | 13.1 | 34.6 | 14.9 | > 100 | 12.6 | 45.8 | 18.3 | > 49.5 | 24.2 | 58.3 | 29.1 | > 82.1 | 14.8 | 60.4 | 10.3 | 22.2 | 10.3 | 24.8
NCCO/C=C/C(N)C(=O)O (stereo not given) |  | > 100 |  | > 100 |  | > 100 |  | > 100 |  | > 100 |  | > 100 |  | > 100 |  | > 100 |  | > 100 |  | > 100
CCOC(=O)Nc1ccc2nc(-c3cscn3)[nH]c2c1 | 3.64 | 18.9 | 9.61 | > 100 | 3.87 | > 100 | 2.2 | > 100 | 4.91 | > 100 | 8.3 | 92.6 | 2.68 | > 100 | 48.9 | > 100 | 5.6 | > 100 | 28.6 | > 100
COc1cc(N2C(=O)[C@H](Cl)C2c2ccc(SC)cc2)cc(OC)c1OC (stereo not given in full) | 0.0677 | 11.4 | 0.168 | > 100 | 0.035 | 1 | 0.047 | > 100 | 0.263 | > 100 | 0.101 | > 100 | 0.0356 | > 100 | 0.0647 | > 100 | 0.348 | > 100 | 1.94 | > 100
CCCCCCCC/C=C/CCCCCCCC1=NC(C)(C)CN1C(C)(C)CO | 1.88 | 3.42 | 1.86 | 3.32 | 1.52 | 2.9 |  |  | 1.76 | 3.28 | 1.84 | 3.9 | 1.82 | 3.43 | 2.12 | 4.4 | 2.25 | 6.67 | 2.61 | 7.46
COc1cc(C2CC(c3ccc(Nc4nc(NCCO)nc(NCCO)n4)cc3)=NN2c2cc(Cl)cc(Cl)c2)cc(OC)c1OC (stereo not given) | 2.7 | 9.29 | 1.84 | 4.11 | 1.28 | 2.67 | 1.5 | 3.13 |  |  | 0.644 | 3.34 | 1.26 | 2.94 | 1.63 | 3.66 | 1.75 | 3.82 | 2.01 | 4.45
COc1c2ccoc2nc2c(OC)c(OCC(O)C(C)(C)O)ccc12 (stereo not given) |  | > 100 |  | > 100 |  | > 100 |  | > 100 |  |  |  | > 100 |  | > 100 |  | > 100 |  | > 100 |  | > 100
